The source made the active and inactive calls. No cut-off for these calls is given here.
Legend:
[1] = Inhibition of Feline immunodeficiency virus Petaluma envelope glycoprotein gp40 assessed as inhibition of HR1-HR2 interaction after 1.5 hrs by ELISA
[2] = Inhibition of Feline immunodeficiency virus Shizuoka envelope glycoprotein gp40 assessed as inhibition of HR1-HR2 interaction after 1.5 hrs by ELISA
[3] = Inhibition of Feline immunodeficiency virus UK8 envelope glycoprotein gp40 assessed as inhibition of HR1-HR2 interaction after 1.5 hrs by ELISA
[4] = Inhibition of Feline immunodeficiency virus Sendai-1 envelope glycoprotein gp40 assessed as inhibition of HR1-HR2 interaction after 1.5 hrs by ELISA
[5] = system: MT4; assay: Inhibition of Feline immunodeficiency virus envelope glycoprotein 40-mediated cell fusion between virus-transfected feline thymic lymphoma 3201 cells and human MT4 cells at 10 uM after 7 days; type: cell-based

Compound | IC50 [1] | IC50 [2] | IC50 [3] | IC50 [4] | Activity [5]
H-GEETLKKWEEQTKKLEEKFKKIEENIKKNEEQVKKGEEQLKK-OH | > 10000 nM |  |  |  | 
H-LEEWYKKTEELQKKFEEIIKKIEENNKKVEEGLKK-OH | 16.6 nM | 115 nM | 5.39 nM | 22.6 nM | 
CC[C@H](C)[C@H](NC(=O)CNC(=O)[C@H](CCC(=O)O)NC(=O)[C@H](CCC(=O)O)NC(=O)CNC(=O)[C@H](CCCCN)NC(=O)[C@H](CCCCN)NC(=O)[C@H](CC(N)=O)NC(=O)[C@H](CC(N)=O)NC(=O)[C@H](CCC(=O)O)NC(=O)[C@H](CCC(=O)O)NC(=O)[C@@H](NC(=O)[C@H](CCCCN)NC(=O)[C@H](CCCCN)NC(=O)[C@@H](NC(=O)[C@@H](NC(=O)[C@H](CCC(=O)O)NC(=O)[C@H](CCC(=O)O)NC(=O)[C@H](Cc1ccccc1)NC(=O)[C@H](CCCCN)NC(=O)[C@H](CCCCN)NC(=O)[C@H](CCC(N)=O)NC(=O)[C@H](CC(C)C)NC(=O)[C@H](CCC(=O)O)NC(=O)[C@H](CCC(=O)O)NC(=O)[C@@H](NC(=O)[C@H](CCCCN)NC(=O)[C@H](CCCCN)NC(=O)[C@H](Cc1ccc(O)cc1)NC(=O)[C@H](Cc1c[nH]c2ccccc12)NC(=O)[C@H](CCC(=O)O)NC(=O)[C@H](CCC(=O)O)NC(=O)[C@@H](N)CC(C)C)[C@@H](C)O)[C@@H](C)CC)[C@@H](C)CC)[C@@H](C)CC)C(=O)N[C@@H](CCCCN)C(=O)N[C@@H](CCCCN)C(=O)O | 51.6 nM | 78.5 nM | 9.33 nM | 8.87 nM | Active
H-LGEWYNQTKELQQKFYEIIMNIEQNNVQVKKGLQQ-OH | 708 nM | 6310 nM | 724 nM | 646 nM | 
H-LRDWYNNTQQLQKKFYEIIYDIEQNNVQGKQGLQQ-OH | 195 nM | 2510 nM | 182 nM | 37.2 nM | 
H-WEEWDKKIEEYTKKIEELIKKSEEQQKKNEEELKK-OH | > 10000 nM |  |  |  | 
H-LEEWYKKTEELQKKFEEIIKKIEENNKKGEEGLKK-OH | 12.8 nM | 19.7 nM | 3.38 nM | 2.53 nM | 
H-LEEWYKKTEELQKKFEEIIKKIEENSKKGEEGIKK-OH | 200 nM | 203 nM | 443 nM | 42.4 nM | 
H-LGEWYNQTKGLQQKFYEIIMDIEQNSVQGKKGIQQ-OH | 2400 nM | > 10000 nM | > 10000 nM | 437 nM | 
H-NEELGKKYEETKKKQEEFYKKIEEIEKKNEEVKKKLEELQKK-OH | 169 nM |  |  |  | 
H-LGEWYNQTKDLQQKFYEIIMDIEQNNVQGKKGIQQ-OH | 1260 nM | 6310 nM | 513 nM | 183 nM | Active

Reference: ChEMBL document CHEMBL1152504, “Design and synthesis of membrane fusion inhibitors against the feline immunodeficiency virus” (Bioorg Med Chem, 2009)
